Results reported in article PMC8206213, “An L-2-hydroxyglutarate biosensor based on specific transcriptional regulator LhgR” (Nature Communications, 2021).
“And” between values parts separate entries of the source, which are not always exact repeats. Equal values may be shown once.

Test: LHGFR expressed in E. coli BL21(DE3), response to exogenous L-2-HG (time course and dose-response)
Assay type: cell-based
Settings: Fig. 5a
Procedure: To characterize the sensitivity and specificity of LHGFR expressed in E. coli BL21(DE3), 90 μL cell suspensions following 8 h carbon starvation were mixed with 10 μL increasing concentrations of L-2-HG or other compounds, and then added into a black 96-well plate (total 100 μL/per well), the fluorescence intensities were determined using an EnSight microplate reader (PerkinElmer, USA) and the following instrument settings: excitation at 430 nm, emission at 485 nm (mTFP) and 528 nm (Venus), time intervals of 5 min, the temperature at 37 °C, and shake at 180 rpm.

## O=C(O)CC[C@H](O)C(=O)O [L-2-HG, L-2-Hydroxyglutarate]
0.1 μM L-2-HG, 0 min
  Emission ratio: 1.012 and 0.989 and 0.997
0.1 μM L-2-HG, 5 min
  Emission ratio: 1.02 and 0.9981 and 1.004
0.1 μM L-2-HG, 10 min
  Emission ratio: 1.016 and 1.0025 and 1.009
0.1 μM L-2-HG, 15 min
  Emission ratio: 1.023 and 1.007 and 1.026
0.1 μM L-2-HG, 20 min
  Emission ratio: 1.034 and 1.009 and 1.038
0.1 μM L-2-HG, 25 min
  Emission ratio: 1.022 and 1.0081 and 1.026
0.1 μM L-2-HG, 30 min
  Emission ratio: 1.026 and 1.01 and 1.02
0.1 μM L-2-HG, 35 min
  Emission ratio: 1.021 and 1.007 and 1.025
0.1 μM L-2-HG, 40 min
  Emission ratio: 1.033 and 1.012 and 1.025
0.1 μM L-2-HG, 45 min
  Emission ratio: 1.028 and 1.004 and 1.026
0.1 μM L-2-HG, 50 min
  Emission ratio: 1.037 and 1.012 and 1.035
0.1 μM L-2-HG, 55 min
  Emission ratio: 1.031 and 1.006 and 1.033
0.1 μM L-2-HG, 60 min
  Emission ratio: 1.022 (2×) and 1.012
0.1 μM L-2-HG, 65 min
  Emission ratio: 1.024 and 1.014 and 1.029
0.1 μM L-2-HG, 70 min
  Emission ratio: 1.0212 and 1.016 and 1.02
0.1 μM L-2-HG, 75 min
  Emission ratio: 1.025 (2×) and 1.033
0.1 μM L-2-HG, 80 min
  Emission ratio: 1.031 and 1.009 and 1.021
0.1 μM L-2-HG, 85 min
  Emission ratio: 1.0115 and 1.016 and 1.023
0.1 μM L-2-HG, 90 min
  Emission ratio: 1.021 (2×) and 1.032
1 μM L-2-HG, 0 min
  Emission ratio: 0.9972 and 0.975 and 0.9871
1 μM L-2-HG, 5 min
  Emission ratio: 1.009 and 0.9962 and 0.9991
1 μM L-2-HG, 10 min
  Emission ratio: 1.023 and 0.9982 and 1.005
1 μM L-2-HG, 15 min
  Emission ratio: 1.0208 and 0.9996 and 1.009
1 μM L-2-HG, 20 min
  Emission ratio: 1.0328 and 1.012 and 1.019
1 μM L-2-HG, 25 min
  Emission ratio: 1.021 and 1.008 and 1.022
1 μM L-2-HG, 30 min
  Emission ratio: 1.0327 and 1.008 (2×)
1 μM L-2-HG, 35 min
  Emission ratio: 1.03 and 0.9986 and 1.019
1 μM L-2-HG, 40 min
  Emission ratio: 1.036 and 1.0055 and 1.012
1 μM L-2-HG, 45 min
  Emission ratio: 1.034 and 0.9995 and 1.022
1 μM L-2-HG, 50 min
  Emission ratio: 1.045 and 1.003 and 1.021
1 μM L-2-HG, 55 min
  Emission ratio: 1.024 and 1.003 and 1.034
1 μM L-2-HG, 60 min
  Emission ratio: 1.027 and 1.003 and 1.025
1 μM L-2-HG, 65 min
  Emission ratio: 1.026 and 0.994 and 1.032
1 μM L-2-HG, 70 min
  Emission ratio: 1.026 and 0.9971 and 1.03
1 μM L-2-HG, 75 min
  Emission ratio: 1.025 and 1.005 and 1.037
1 μM L-2-HG, 80 min
  Emission ratio: 1.033 (2×) and 0.9987
1 μM L-2-HG, 85 min
  Emission ratio: 1.013 and 1.0091 and 1.026
1 μM L-2-HG, 90 min
  Emission ratio: 1.034 and 1.005 and 1.032
10 μM L-2-HG, 0 min
  Emission ratio: 0.9974 and 0.9749 and 0.9795
10 μM L-2-HG, 5 min
  Emission ratio: 1.027 and 0.9941 and 0.9973
10 μM L-2-HG, 10 min
  Emission ratio: 1.031 and 0.9958 and 1.001
10 μM L-2-HG, 15 min
  Emission ratio: 1.0289 and 1.0021 and 1.009
10 μM L-2-HG, 20 min
  Emission ratio: 1.045 and 1 and 1.01
10 μM L-2-HG, 25 min
  Emission ratio: 1.039 and 0.9977 and 1.015
10 μM L-2-HG, 30 min
  Emission ratio: 1.037 and 0.9978 and 1.007
10 μM L-2-HG, 35 min
  Emission ratio: 1.04 and 1.003 and 1.015
10 μM L-2-HG, 40 min
  Emission ratio: 1.03 and 1 and 1.011
10 μM L-2-HG, 45 min
  Emission ratio: 1.029 and 1.001 and 1.0118
10 μM L-2-HG, 50 min
  Emission ratio: 1.038 and 1.001 and 1.016
10 μM L-2-HG, 55 min
  Emission ratio: 1.018 and 0.9882 and 1.017
10 μM L-2-HG, 60 min
  Emission ratio: 1.019 (2×) and 0.997
10 μM L-2-HG, 65 min
  Emission ratio: 1.0139 and 0.9961 and 1.023
10 μM L-2-HG, 70 min
  Emission ratio: 1.0139 and 0.9946 and 1.028
10 μM L-2-HG, 75 min
  Emission ratio: 1.017 and 0.9951 and 1.034
10 μM L-2-HG, 80 min
  Emission ratio: 1.022 and 0.9886 and 1.029
10 μM L-2-HG, 85 min
  Emission ratio: 1.023 and 0.9843 and 1.034
10 μM L-2-HG, 90 min
  Emission ratio: 1.009 and 0.9801 and 1.033
20 μM L-2-HG, 0 min
  Emission ratio: 0.9789 and 0.9659 and 0.9802
20 μM L-2-HG, 5 min
  Emission ratio: 0.9958 and 0.9868 and 0.9915
20 μM L-2-HG, 10 min
  Emission ratio: 1.008 and 0.9945 and 0.999
20 μM L-2-HG, 15 min
  Emission ratio: 1.027 and 1.004 and 1.005
20 μM L-2-HG, 20 min
  Emission ratio: 1.024 and 1.0082 and 1
20 μM L-2-HG, 25 min
  Emission ratio: 1.026 and 1.013 and 1.0078
20 μM L-2-HG, 30 min
  Emission ratio: 1.036 and 1.005 and 1.016
20 μM L-2-HG, 35 min
  Emission ratio: 1.021 and 1.001 and 1.019
20 μM L-2-HG, 40 min
  Emission ratio: 1.043 and 1.002 and 1.018
20 μM L-2-HG, 45 min
  Emission ratio: 1.041 and 1.009 and 1.022
20 μM L-2-HG, 50 min
  Emission ratio: 1.04 and 1.006 and 1.0167
20 μM L-2-HG, 55 min
  Emission ratio: 1.015 and 1.004 and 1.027
20 μM L-2-HG, 60 min
  Emission ratio: 1.0355 and 0.9994 and 1.024
20 μM L-2-HG, 65 min
  Emission ratio: 1.024 and 1.003 and 1.019
20 μM L-2-HG, 70 min
  Emission ratio: 1.023 and 0.9958 and 1.025
20 μM L-2-HG, 75 min
  Emission ratio: 1.0243 and 1.007 and 1.0344
20 μM L-2-HG, 80 min
  Emission ratio: 1.023 and 0.9899 and 1.029
20 μM L-2-HG, 85 min
  Emission ratio: 1.012 and 1.001 and 1.028
20 μM L-2-HG, 90 min
  Emission ratio: 1.022 and 0.9961 and 1.035
100 μM L-2-HG, 0 min
  Emission ratio: 0.9864 and 0.9735 and 0.9711
100 μM L-2-HG, 5 min
  Emission ratio: 1.005 and 0.9924 and 0.9939
100 μM L-2-HG, 10 min
  Emission ratio: 1.009 and 1.008 and 1.012
100 μM L-2-HG, 15 min
  Emission ratio: 1.0245 and 1.016 and 1.019
100 μM L-2-HG, 20 min
  Emission ratio: 1.0318 and 1.022 and 1.0268
100 μM L-2-HG, 25 min
  Emission ratio: 1.0276 and 1.029 and 1.024
100 μM L-2-HG, 30 min
  Emission ratio: 1.034 and 1.025 and 1.028
100 μM L-2-HG, 35 min
  Emission ratio: 1.039 and 1.026 and 1.037
100 μM L-2-HG, 40 min
  Emission ratio: 1.0304 and 1.029 and 1.028
